Source: publication PMC8491553 (ACS Medicinal Chemistry Letters, 2021)

Each compound was assayed against SARS-CoV-2 main protease (3CLpro) (Severe acute respiratory syndrome coronavirus 2, UniProt P0DTD1).
Format: biochemical

Question: How did the “activity as main protease inhibitor (in words)” value turn out when Cn1nc(C(=O)N2CC3(C)CN(C(=O)c4nn(C)c5c4CCc4ccccc4-5)CC(C)(C2)C3=O)c2c1-c1ccccc1CC2 [Compound 2j] was run?
Answer: submicromolar range

Question: With C#CCN1CC2(C)CN(CC#C)CC(C)(C1)C2=O [Compound 4c] as the compound, how does the “activity as main protease inhibitor (in words)” value read?
Answer: lower micromolar range

Question: Which “activity as main protease inhibitor (in words)” value does the source give for CC12CN(Cc3ccccc3)CC(C)(CN(Cc3ccccc3)C1)C2=O [Compound 4d] here?
Answer: submicromolar activity

Question: Which “activity as main protease inhibitor (in words)” value does the source give for CC12CN(CC#N)CC(C)(CN(CC#N)C1)C2=O [Compound 4l] here?
Answer: lower micromolar range

Question: How did the “activity as main protease inhibitor (in words)” value turn out when CC12CN(CC(=O)O)CC(C)(CN(CC(=O)O)C1)C2=O [Compound 4m] was run?
Answer: lower micromolar range

Question: Which “activity as main protease inhibitor (in words)” value does the source give for Cc1cc(CN2CC3(C)CN(Cc4cc(C)no4)CC(C)(C2)C3=O)on1 [Compound 4o] here?
Answer: lower micromolar range

Question: For CC(C)(C)OC(=O)Cn1cc(CN2CC3(C)CN(Cc4cn(CC(=O)OC(C)(C)C)nn4)CC(C)(C2)C3=O)nn1 [Compound 4p], which “activity as main protease inhibitor (in words)” value is on record?
Answer: lower micromolar range

Question: For CC(C)(C)OC(=O)NCCn1cc(CN2CC3(C)CN(Cc4cn(CCNC(=O)OC(C)(C)C)nn4)CC(C)(C2)C3=O)nn1 [Compound 4q], which “activity as main protease inhibitor (in words)” value is on record?
Answer: submicromolar activity

Question: CC12CN(Cc3cn(Cc4ccccc4)nn3)CC(C)(CN(Cc3cn(Cc4ccccc4)nn3)C1)C2=O [Compound 4r] was tested. Which “activity as main protease inhibitor (in words)” value did it give?
Answer: lower micromolar range

Question: Which “activity as main protease inhibitor (in words)” value does the source give for CC(C)Cc1ccc(C(C)C(=O)O)cc1 (stereo not shown) [Ibuprofen, reference compound] here?
Answer: no activity at all
